Assay results from PMC3608651, “A Broad Profile of Co-Dominant Epitopes Shapes the Peripheral Mycobacterium tuberculosis Specific CD8+ T-Cell Immune Response in South African Patients with Active Tuberculosis” (PLoS ONE, 2013).
Where two headings read alike, the source gives them in different places.

What was measured:
Assay type in all cases: binding
HLA-A*02:01 = HLA-A*02:01 (Homo sapiens, UniProt P04439, D140Y/D185E/D98H/E176V/E277Q/G131W/G231S/I119V/I121R/I166T/I218V/L300P/L318F/N151K/N90K/P208A/P217A/Q86G/Q94H/R138H/R169H/T345S); conditions: plate-bound monomer 0.5 µg/ml, duplicated experiments, positive binder >40%
HLA-C*07:01 = HLA-C*07:01 (Homo sapiens, UniProt P10321, K90N/S123Y); conditions: duplicated experiments, positive binder >40%
HLA-A*68:01 = HLA-A*68:01 (Homo sapiens, UniProt P04439, A269V/D185E/E176V/E277Q/E87N/F33Y/G231S/I121M/I166T/I218V/L180W/L300P/L318F/N151K/P208A/P217A/Q86R/R169H/T345S); conditions: duplicated experiments, positive binder >40%
HLA-A*30:01 = HLA-A*30:01 (Homo sapiens, UniProt P04439, D140H/D185E/E176W/F33S/G80R/H175R/K168Q/R138E/R41S); conditions: duplicated experiments, positive binder >40%
HLA-A*24:02 = HLA-A*24:02 (Homo sapiens, UniProt P04439, D101N/D140Y/D185E/E176V/E190D/F33S/G103R/G107R/I119L/I121M/I306V/K335N/L105A/L180Q/L300P/N151K/N90K/Q86E/Q94H/R106L/R138H/R89G/T104I/T345S/V100E/W191G/Y123F); conditions: duplicated experiments, positive binder >40%
HLA-B*07:02 = HLA-B*07:02 (Homo sapiens, UniProt P01889); conditions: percent relative the binding of positive control peptide […]; duplicated experiments; positive binder >40%
HLA-B*58:01 = HLA-B*58:01 (Homo sapiens, UniProt P01889, A329T/C349S/D201E/D98Y/E176V/E187L/E204Q/E69T/G107R/I218V/I90N/K202T/L105A/L119I/N104I/N87E/Q89R/Q94S/R106L/R155S/R180L/R86G/S101N/S121R/S35A/S48A/T118I/V127L/V306I/V36M/Y140S/Y91M); conditions: duplicated experiments, positive binder >40%
HLA-A*30:02 = HLA-A*30:02 (Homo sapiens, UniProt P04439, D101N/D140H/D185E/E176R/F33S/G80R/H175R/K168Q/Q94H/R138E/R41S/V100E); conditions: duplicated experiments, positive binder >40%
[1] = percent relative the binding of positive control peptide […]

Substance	Bind A*02:01 (HLA-A*02:01; [1])	Bind C*07:01 (HLA-C*07:01; [1])	Bind A*68:01 (HLA-A*68:01; [1])	Bind A*30:01 (HLA-A*30:01; [1])	Bind A*24:02 (HLA-A*24:02; [1])	Bind B*07:02 (HLA-B*07:02)	Bind B*58:01 (HLA-B*58:01; [1])	Bind A*30:02 (HLA-A*30:02; [1])	Bind A*02:01 (HLA-A*02:01; percent relative the binding of positive control peptide FLPSDFFPSV)	Bind C*07:01 (HLA-C*07:01; percent relative the binding of positive control peptide KYFDEHYEY)	Bind A*68:01 (HLA-A*68:01; percent relative the binding of positive control peptide KTGGPIYKR)	Bind A*30:01 (HLA-A*30:01; percent relative the binding of positive control peptide KTKDIVNGL)	Bind A*24:02 (HLA-A*24:02; percent relative the binding of positive control peptide RYLKDQQLL)	Bind B*58:01 (HLA-B*58:01; percent relative the binding of positive control peptide IAMESIVIW)	Bind A*30:02 (HLA-A*30:02; percent relative the binding of positive control peptide KIQNFRVYY)
LIGLAMGDA	59%	0%	0%	0%	0%	0%	0%	5%	–	–	–	–	–	–	–
LKFQDAYNA	17%	53%	0%	0%	0%	0%	9%	91%	–	–	–	–	–	–	–
LLDGLRAQD	63%	0%	16%	8%	0%	0%	0%	140%	–	–	–	–	–	–	–
LSANRAVKP	17%	24%	0%	49%	27%	11%	0%	15%	–	–	–	–	–	–	–
LSIVMPVGG	33%	0%	0%	0%	0%	0%	29%	46%	–	–	–	–	–	–	–
LTSELPQW L	56%	2%	0%	0%	9%	7%	34%	19%	–	–	–	–	–	–	–
MGDAGGYKA	45%	0%	9%	0%	0%	0%	0%	0%	–	–	–	–	–	–	–
MGPSLIGLA	68%	14%	0%	15%	0%	5%	41%	0%	–	–	–	–	–	–	–
MILAAYHPQ	56%	4%	0%	0%	0%	0%	11%	82%	–	–	–	–	–	–	–
MW GPSSDPA	6%	0%	7%	0%	24%	3%	0%	74%	–	–	–	–	–	–	–
NAAGGHNAV	39%	5%	28%	27%	0%	16%	43%	2%	–	–	–	–	–	–	–
NAMKGDLQS	14%	20%	15%	6%	45%	6%	0%	0%	–	–	–	–	–	–	–
NAVFNFPPN	24%	2%	27%	0%	14%	5%	28%	70%	–	–	–	–	–	–	–
NFPPNGTHS	14%	0%	0%	11%	0%	0%	26%	43%	–	–	–	–	–	–	–
NGW DINTPA	87%	14%	4%	8%	36%	21%	0%	0%	–	–	–	–	–	–	–
NNTRLW VYC	0%	20%	4%	19%	3%	4%	11%	89%	–	–	–	–	–	–	–

Substance	Bind A*02:01 (HLA-A*02:01; [1])	Bind C*07:01 (HLA-C*07:01; [1])	Bind A*68:01 (HLA-A*68:01; [1])	Bind A*30:01 (HLA-A*30:01; [1])	Bind A*24:02 (HLA-A*24:02; [1])	Bind B*07:02 (HLA-B*07:02)	Bind B*58:01 (HLA-B*58:01; [1])	Bind A*30:02 (HLA-A*30:02; [1])	Bind A*02:01 (HLA-A*02:01; percent relative the binding of positive control peptide FLPSDFFPSV)	Bind C*07:01 (HLA-C*07:01; percent relative the binding of positive control peptide KYFDEHYEY)	Bind A*68:01 (HLA-A*68:01; percent relative the binding of positive control peptide KTGGPIYKR)	Bind A*30:01 (HLA-A*30:01; percent relative the binding of positive control peptide KTKDIVNGL)	Bind A*24:02 (HLA-A*24:02; percent relative the binding of positive control peptide RYLKDQQLL)	Bind B*58:01 (HLA-B*58:01; percent relative the binding of positive control peptide IAMESIVIW)	Bind A*30:02 (HLA-A*30:02; percent relative the binding of positive control peptide KIQNFRVYY)
NT RLW V Y CG	0%	0%	0%	27%	0%	0%	0%	49%	–	–	–	–	–	–	–
PAFEW YYQS	76%	2%	6%	0%	24%	15%	0%	0%	–	–	–	–	–	–	–
PNGTHSWEY	0%	48%	9%	0%	0%	8%	0%	77%	–	–	–	–	–	–	–
PQWLSANRA	52%	2%	13%	36%	75%	14%	0%	13%	–	–	–	–	–	–	–
PSQGMGPSL	39%	29%	0%	21%	56%	8%	0%	16%	–	–	–	–	–	–	–
PSSDPAW ER	1%	18%	53%	0%	0%	10%	2%	0%	–	–	–	–	–	–	–
PTQQIPKLV	3%	22%	0%	10%	11%	5%	9%	86%	–	–	–	–	–	–	–
PVGGQSSFY	0%	0%	0%	0%	0%	0%	0%	82%	–	–	–	–	–	–	–
QLNAMKGDL	71%	17%	0%	10%	60%	49%	0%	0%	–	–	–	–	–	–	–
QQFIYAGSL	42%	27%	0%	0%	0%	0%	8%	80%	–	–	–	–	–	–	–
QQIPKLVAN	36%	15%	2%	10%	0%	2%	16%	60%	–	–	–	–	–	–	–
QQWNFAGIE [Rv3875_4–12]	–	–	–	–	–	1%	–	–	45%	11%	15%	0%	0%	0%	39%
QSGLSIVMP	30%	43%	0%	34%	0%	0%	0%	0%	–	–	–	–	–	–	–
RLWVYCGNG	45%	9%	12%	0%	0%	2%	8%	65%	–	–	–	–	–	–	–
SAAIGLSMA	67%	0%	0%	0%	0%	31%	5%	0%	–	–	–	–	–	–	–
